Patent publication US20230141783A1, “DIFFERENT FORMS OF 6-CHLORO-2-ETHYL-N-(4-(4-(4-(TRIFLUOROMETHOXY)PHENYL)PIPERIDINE-1-YL)BENZYL)IMIDAZO[1,2-A]PYRIDINE-3-CARBOXAMIDE” (priority 2019, published 2023)
Values joined by “and” are separate entries in the source; they are usually repeats but may differ in a detail not shown here. Equal entries are not always repeated. “Also recorded” adds a separate entry of the source. Where two headings read alike, the source gives them in different places.

Legend:
[1] = Long-term stability at 25° C./60% RH (HPLC); format: physicochemical; conditions: 25° C. and 60% RH for up to 60 months; ditosylate
[2] = Stability under accelerated conditions 40° C./75% RH (HPLC); format: physicochemical; conditions: 40° C. and 75% RH up to 6 months
DVS water absorption = format: physicochemical; conditions: 90% RH at RT
Description: (FIGS. 4-5). It is the predominant form obtained in slurry experiments. Conversion from Form A to other XRPD patterns was mainly obtained from methanol (to Form C) or water (to pattern B) in the slurry medium. However, as it will be shown in further sections, Form C is converted to Form A upon re-slurry in the majority of other solvents (than methanol).
FIGS. 9 to 11 show XRPD, DSC, and TGA of a solid with Form C. […] The XRPD peaks of pattern C are sharper than those of Form A. Form C is the predominant form when methanol is used as the slurry medium. However, Form “C” is not a methanol solvate form of the di-tosylate salt. Many reactive crystallization experiments using different solvents generated Form C immediately after salt formation.

[3] = Exposing Forms A and C in 100% RH at RT (XRPD/DSC); format: physicochemical; conditions: 100% RH at RT for 6 days
Description: Forms A and C were exposed in 100% RH environment at RT for 6 days; the solids were subsequently analyzed using DSC and XRPD.
In FIGS. 1 and 17, the XRPD of sample of Form A (previous obtained form EA and IPA/MEK) before and after 6 days exposure to 100% RH are sketched. FIGS. 19 and 20 show the DSC scan of the same samples after exposure. […] FIGS. 18 and 21 show the result of the same treatment for Form C.

[4] = Solubility estimation by aliquot addition and Clarity temperature cycling
[5] = Humidity stress of generated salts (75% relative humidity, 7 days, XRPD); format: physicochemical; conditions: test for deliquescence, sample stressed for several days under 75% RH
Description: Approximately 25 mg of generated salts of […] were added to vials and placed unsealed into a 75% relative humidity chamber (sealed cabinets with relative humidity conditions controlled by super-saturated salt solutions) at ambient temperature for 7 days prior to analysis by XRPD.

[6] = pH 4.5 buffer, pull time 23 hrs
[7] = pH 6.8 buffer, pull time 22.5 hrs
[8] = pH 7.5 buffer, pull time 72 hrs

Q: For `CCc1nc2ccc(Cl)cn2c1C(=O)NCc1ccc(N2CCC(c3ccc(OC(F)(F)F)cc3)CC2)cc1.Cc1ccc(S(=O)(=O)O)cc1.Cc1ccc(S(=O)(=O)O)cc1` [6-chloro-2-ethyl-N-(4-(4-(4-(trifluoromethoxy)phenyl)piperidine-1-yl)benzyl)imidazo[1,2-a]pyridine-3-carboxamide ditosylate], which long-term storage stability [1] is on record?
A: Its long-term storage stability is “stable”.

Q: And the “stability under accelerated conditions” value [2]?
A: Its value is “stable”.

Q: With `CCc1nc2ccc(Cl)cn2c1C(=O)NCc1ccc(N2CCC(c3ccc(OC(F)(F)F)cc3)CC2)cc1.Cc1ccc(S(=O)(=O)O)cc1.Cc1ccc(S(=O)(=O)O)cc1` [Ditosylate] as the compound, how does the “HPLC concentration based on avg std” value (pH 1, client result) read?
A: Its value is 1.45 (client result) mg/ml.

Q: For `CCc1nc2ccc(Cl)cn2c1C(=O)NCc1ccc(N2CCC(c3ccc(OC(F)(F)F)cc3)CC2)cc1.Cc1ccc(S(=O)(=O)O)cc1.Cc1ccc(S(=O)(=O)O)cc1` [Form C], which “water absorption (DVS)” value (DVS water absorption) is on record?
A: Its value is “less than 0.3%”.

Q: And the “crystalline form after exposure to 100% RH” value [3]?
A: The value was “maintains its crystalline form; also recorded: crystal structure does not change”.

Q: For `CCc1nc2ccc(Cl)cn2c1C(=O)NCc1ccc(N2CCC(c3ccc(OC(F)(F)F)cc3)CC2)cc1.Cl` [HCl salt, 6-chloro-2-ethyl-N-(4-(4-(4-(trifluoromethoxy)phenyl)piperidine-1-yl)benzyl)imidazo[1,2-a]pyridine-3-carboxamide mono-hydrochloride], which “solid form after slurrying in buffer (XRPD)” value (shortened to “solid form after slurrying”) (all buffers tested (pH 1, 4.5, 6.8, 7.5), listed as HCl, mono-hydrochloride) is on record?
A: Its value is “Type 56”.

Q: And the “solid form after slurrying” value (all buffers tested (pH 1, 4.5, 6.8, 7.5), mono-hydrochloride)?
A: Its value is “no conversion to the free base was observed”.

Q: What about the “solubility in comparison to the di-tosylate salt” value (pH 1) of the same compound?
A: Its value is “better solubility”.

Q: With `CCc1nc2ccc(Cl)cn2c1C(=O)NCc1ccc(N2CCC(c3ccc(OC(F)(F)F)cc3)CC2)cc1.Cl` [HCl salt, Type 36] as the compound, how does the “XRPD of solid isolated after pH solubility experiment” value (from here on “XRPD of solid isolated”) (pH 1 buffer, pull time 24 hrs) read?
A: Its value is “T56 HCl salt crystalline”.

Q: And the “HPLC concentration based on avg std” value [6]?
A: The value was 0.000323 mg/mL and 0.000307 mg/mL.

Q: And the “XRPD of solid isolated” value [6]?
A: Its value is “T56 HCl salt crystalline”.

Q: And the “HPLC concentration based on avg std” value [7]?
A: The value was 0.000285 mg/mL and 0.000277 mg/mL.

Q: And the “XRPD of solid isolated” value [7]?
A: Its value is “T56 HCl salt crystalline”.

Q: And the “HPLC concentration based on avg std” value [8]?
A: Its value is 3.28e-05 mg/mL and 3.57e-05 mg/mL.

Q: What about the “XRPD of solid isolated” value [8] of the same compound?
A: The value was “T56 HCl salt crystalline”.

Q: Which “Aq. Sol” value ([4]; approximate values by aliquot addition on unbuffered water) does the source give for `CCc1nc2ccc(Cl)cn2c1C(=O)NCc1ccc(N2CCC(c3ccc(OC(F)(F)F)cc3)CC2)cc1.Cc1ccc(S(=O)(=O)O)cc1.Cc1ccc(S(=O)(=O)O)cc1` [Pat A] here?
A: Its value is under 0.38 mg/mL.

Q: And the “Aq. Sol” value ([4]; approximate values measured by aliquot addition in unbuffered water)?
A: The value was under 0.38 mg/mL.

Q: What about the “RH stress (20C/75RH)” value [5] of the same compound?
A: Its value is “stable”.

Q: And the “RH stress (20C/75RH)” value ([5]; 20C)?
A: The value was “stable”.

Q: For `CCc1nc2ccc(Cl)cn2c1C(=O)NCc1ccc(N2CCC(c3ccc(OC(F)(F)F)cc3)CC2)cc1.O=P(O)(O)O` [Phosphate salt, Type 37], which “XRPD of solid isolated” value (pH 1) is on record?
A: The value was “T56 HCl salt v. disordered”.

Q: And the “HPLC concentration based on avg std” value (pH 1 buffer, pull time 24 hrs)?
A: Its value is 5.33 mg/mL and 5.64 mg/mL.

Q: And the “XRPD of solid isolated” value (pH 4.5)?
A: The value was “Type 28 disordered”.

Q: What about the “HPLC concentration based on avg std” value [6] of the same compound?
A: The value was 0.000384 mg/mL and 0.000336 mg/mL.

Q: What about the “XRPD of solid isolated” value (pH 6.8) of the same compound?
A: Its value is “Type 28 disordered”.

Q: And the “HPLC concentration based on avg std” value [7]?
A: Its value is 0.00028 mg/mL and 0.000297 mg/mL.

Q: What about the “XRPD of solid isolated” value (pH 7.5) of the same compound?
A: The value was “Type 28 disordered”.

Q: What about the “HPLC concentration based on avg std” value [8] of the same compound?
A: The value was 6.39e-05 mg/mL and 4.1e-05 mg/mL.

Q: For `CCc1nc2ccc(Cl)cn2c1C(=O)NCc1ccc(N2CCC(c3ccc(OC(F)(F)F)cc3)CC2)cc1` [Type 28], which solubility (pH 4.5 and above) is on record?
A: The solubility was under 0.00037 mg/mL.

Q: With `CCc1nc2ccc(Cl)cn2c1C(=O)NCc1ccc(N2CCC(c3ccc(OC(F)(F)F)cc3)CC2)cc1.Cl` [Type 36] as the compound, how does the “solid form after slurrying” value (all buffers tested (pH 1, 4.5, 6.8, 7.5), listed as Type 36 HCl salt) read?
A: Its value is “converted to new type HCl salt Type 56”.

Q: Which solubility (pH 1 buffer, room temperature) does the source give for `CCc1nc2ccc(Cl)cn2c1C(=O)NCc1ccc(N2CCC(c3ccc(OC(F)(F)F)cc3)CC2)cc1.Cl` [Type 56] here?
A: The solubility was ~ 5.58 mg/mL.

Q: Which “HPLC concentration based on avg std” value (pH 1 buffer, pull time 24 hrs) does the source give for `CCc1nc2ccc(Cl)cn2c1C(=O)NCc1ccc(N2CCC(c3ccc(OC(F)(F)F)cc3)CC2)cc1.Cc1ccc(S(=O)(=O)O)cc1` [pTSA salt, Type 20] here?
A: The value was 0.33 mg/mL and 0.32 mg/mL.

Q: What about the “XRPD of solid isolated” value (pH 1 buffer, pull time 24 hrs) of the same compound?
A: The value was “p-TSA salt T20 crystalline”.

Q: What about the “HPLC concentration based on avg std” value [6] of the same compound?
A: Its value is 0.000366 mg/mL and 0.000333 mg/mL.

Q: What about the “XRPD of solid isolated” value [6] of the same compound?
A: Its value is “Type 28 disordered”.

Q: And the “HPLC concentration based on avg std” value [7]?
A: Its value is 0.000312 mg/mL and 0.000307 mg/mL.

Q: What about the “XRPD of solid isolated” value [7] of the same compound?
A: Its value is “Type 28 disordered”.

Q: And the “XRPD of solid isolated” value [8]?
A: The value was “Type 28 disordered”.

Q: Which results are given for `CCc1nc2ccc(Cl)cn2c1C(=O)NCc1ccc(N2CCC(c3ccc(OC(F)(F)F)cc3)CC2)cc1.O=P(O)(O)O` [phosphate salt, 6-chloro-2-ethyl-N-(4-(4-(4-(trifluoromethoxy)phenyl)piperidine-1-yl)benzyl)imidazo[1,2-a]pyridine-3-carboxamide mono-phosphate]?
A: solid form after slurrying in buffer (XRPD) (all buffers tested (pH 1, 4.5, 6.8, 7.5)): not stable; solubility in comparison to the di-tosylate salt (low pH, especially around pH1): better solubility; solid form after slurrying in buffer (XRPD) (pH 1 buffer, listed as Phosphate salt, mono-phosphate): converted to HCl Type 56; solid form after slurrying in buffer (XRPD) (pH 1 buffer, mono-phosphate): converted to a new HCl salt, Type 56; solid form after slurrying in buffer (XRPD) (pH 4.5 and above): converted to freebase
